Columns and labels:
[1] = target: T1, OleTJE (Jeotgalicoccus sp. ATCC 8456, UniProt E9NSU2); test: GC of styrene / styrene oxide formation in coupled reaction with purified P450-BM3 SO5; format: biochemical; settings: no external H2O2, H2O2 from SO5 uncoupling
T1 construct: gene JEM45_03820; recombinant; purified enzyme or lyophilized cell-free lysate powder
T1 sequence (E9NSU2 1-422): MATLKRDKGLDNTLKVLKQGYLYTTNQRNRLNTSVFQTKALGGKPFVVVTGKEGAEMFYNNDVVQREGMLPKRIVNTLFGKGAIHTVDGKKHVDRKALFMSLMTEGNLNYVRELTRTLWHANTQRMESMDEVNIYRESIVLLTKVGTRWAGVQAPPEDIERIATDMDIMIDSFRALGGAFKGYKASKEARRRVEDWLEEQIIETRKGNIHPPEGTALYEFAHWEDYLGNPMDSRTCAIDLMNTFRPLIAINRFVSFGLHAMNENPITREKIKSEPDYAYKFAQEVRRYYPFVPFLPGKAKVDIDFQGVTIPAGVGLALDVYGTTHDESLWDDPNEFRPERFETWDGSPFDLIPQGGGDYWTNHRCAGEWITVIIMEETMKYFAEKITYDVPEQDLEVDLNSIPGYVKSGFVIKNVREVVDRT

[2] = target: T2, ANEH (Aspergillus niger, UniProt Q9UR30); test: one-pot cascade with lyophilized lysate powders, conversion to diol; format: biochemical; settings: 50 mM PBS pH 8.0, 300 mM NaCl; epoxide formed in situ by P450-BM3 SO5
T2 construct: gene hyl1; recombinant, co-expressed with P450-BM3 SO5 under the same T7 promoter; lyophilized cell-free lysate powder
T2 sequence (Q9UR30 1-398): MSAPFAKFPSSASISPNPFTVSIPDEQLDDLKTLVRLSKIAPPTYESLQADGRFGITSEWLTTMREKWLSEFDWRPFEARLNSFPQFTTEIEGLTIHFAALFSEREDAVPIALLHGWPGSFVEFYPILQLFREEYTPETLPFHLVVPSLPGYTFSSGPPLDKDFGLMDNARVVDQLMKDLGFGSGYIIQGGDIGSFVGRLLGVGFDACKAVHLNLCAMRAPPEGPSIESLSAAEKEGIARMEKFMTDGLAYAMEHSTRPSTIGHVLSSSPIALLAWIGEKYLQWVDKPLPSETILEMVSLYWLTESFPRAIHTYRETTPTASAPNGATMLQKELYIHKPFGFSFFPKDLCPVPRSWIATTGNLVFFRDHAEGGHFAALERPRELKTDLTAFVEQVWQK

C=Cc1ccccc1 [styrene]
GC of styrene / styrene oxide formation in coupled reaction with purified P450-B [1]: OleT-Catalyzed Reaction B Supplies the Necessary Styrene from 3-Phenyl Propionic Acid

O=C(O)CCc1ccccc1 [1a, 3-phenyl propionic acid]
GC of styrene / styrene oxide formation in coupled reaction with purified P450-B [1]: purified OleTJE was mixed with the purified SO5 variant, and tested in the model reaction

c1ccc([C@@H]2CO2)cc1 [(R)-styrene oxide]
one-pot cascade with lyophilized lysate powders, conversion to diol [2]: selective hydrolytic ring-opening of the respective epoxide catalyzed by the epoxide hydrolase

Reference: publication PMC6727617, “Exploiting Designed Oxidase–Peroxygenase Mutual Benefit System for Asymmetric Cascade Reactions” (Journal of the American Chemical Society, 2019)
